Measured values: US5567692A, “9-[(substituted glycyl) amido)]-6-demethyl-6-deoxytetracyclines” (priority 1995, dated 1996)
≈ marks a conversion by molar mass, not a printed value.

Assays:
Type in all cases: cell-based
E. coli J3272 Tet sens = experiment: MIC, agar dilution; conditions: Escherichia coli, J3272TETSENS, 18 h
E. coli J2175 = experiment: MIC, agar dilution; conditions: Escherichia coli, 18 h, read-out: MIC
E. coli UBMS 90-5 = experiment: microbe, parasite or virus in culture; conditions: Escherichia coli, UBMS905, 18 h, E. coli UBMS 90-5; read-out: MIC
E. coli ATCC 25922 = experiment: MIC, agar dilution; conditions: Escherichia coli, ATCC25922, 18 h
S. marcescens FPOR 8733 = experiment: MIC, agar dilution; conditions: Serratia marcescens, FPOR8733, 18 h
[1] = tested on: Ps. aeruginosa ATCC 27853; experiment: MIC, agar dilution; conditions: Pseudomonas aeruginosa, ATCC27853, 18 h
S. aureus NEMC 8769 = experiment: MIC, agar dilution; conditions: Staphylococcus aureus, NEMC8769, 18 h
S. aureus UBMS 88-4 = experiment: MIC, agar dilution; conditions: Staphylococcus aureus, UBMS884, 18 h; S. aureus UBMS 88-4
S. aureus UBMS 90-3 = experiment: MIC, agar dilution; conditions: Staphylococcus aureus, UBMS903, 18 h, S. aureus UBMS 90-3
S. aureus SMITH (MP) = experiment: MIC, agar dilution; conditions: Staphylococcus aureus, 18 h; S. aureus SMITH (MP)
S. aureus ATCC 29213 = experiment: MIC, agar dilution; conditions: Staphylococcus aureus, ATCC29213, 18 h, S. aureus ATCC 29213
[2] = tested on: S. hemolyticus AVHAH 88-3; experiment: MIC, agar dilution; conditions: Streptococcus pyogenes, AVHAH883, 18 h
Enterococcus 12201 = experiment: MIC, agar dilution; conditions: Enterococcus, 12201, 18 h
[3] = tested on: Staphylococcus aureus, (methicillin-susceptible); experiment: MIC range, recent clinical and veterinary isolates; conditions: Staphylococcus aureus, 18 h, read-out: MIC Range
Enterococcus faecalis = experiment: MIC range, recent clinical and veterinary isolates; conditions: 18 h, read-out: MIC Range
Enterococcus faecium = experiment: MIC range, recent clinical and veterinary isolates; conditions: 18 h, read-out: MIC Range
Streptococcus pyogenes = experiment: MIC range, recent clinical and veterinary isolates; conditions: 18 h, read-out: MIC Range
Streptococcus agalactiae = experiment: MIC range, recent clinical and veterinary isolates; conditions: 18 h, read-out: MIC Range
Streptococcus pneumoniae = experiment: MIC range, recent clinical and veterinary isolates; conditions: 18 h, read-out: MIC Range
Klebsiella oxytoca = experiment: MIC range, recent clinical and veterinary isolates; conditions: 18 h, read-out: MIC Range
Citrobacter freundii = experiment: MIC range, recent clinical and veterinary isolates; conditions: 18 h, read-out: MIC Range
Citrobacter diversus = experiment: MIC range, recent clinical and veterinary isolates; conditions: Citrobacter koseri, 18 h, read-out: MIC Range
Enterobacter cloacae = experiment: MIC range, recent clinical and veterinary isolates; conditions: 18 h, read-out: MIC Range
Enterobacter aerogenes = experiment: MIC range, recent clinical and veterinary isolates; conditions: Klebsiella aerogenes, 18 h, read-out: MIC Range
Proteus mirabilis = experiment: MIC range, recent clinical and veterinary isolates; conditions: 18 h, read-out: MIC Range
Proteus vulgaris = experiment: MIC range, recent clinical and veterinary isolates; conditions: 18 h, read-out: MIC Range
Pseudomonas aeruginosa = experiment: MIC range, recent clinical and veterinary isolates; conditions: 18 h, read-out: MIC Range
Xanthamonas maltophilia = experiment: MIC range, recent clinical and veterinary isolates; conditions: 18 h, read-out: MIC Range
Moraxella catarrhalis = experiment: MIC range, recent clinical and veterinary isolates; conditions: 18 h, read-out: MIC Range
Haemophilus influenzae = experiment: MIC range, recent clinical and veterinary isolates; conditions: 18 h, [15] isolates
[4] = tested on: Pasturella multocida (Veterinary); experiment: MIC range, recent clinical and veterinary isolates; conditions: 18 h, [17] isolates
[5] = tested on: Bordetella bronchiseptica (Veterinary); experiment: MIC range, recent clinical and veterinary isolates; conditions: Bordetella bronchiseptica, 18 h, read-out: MIC Range
[6] = tested on: Bacteroides fragilis group; experiment: MIC range, recent clinical and veterinary isolates; conditions: Bacteroides fragilis, 18 h, read-out: MIC Range
Clostridium difficile = experiment: MIC range, recent clinical and veterinary isolates; conditions: Clostridioides difficile, 18 h, read-out: MIC Range
Clostridium perfringens = experiment: microbe, parasite or virus in culture; conditions: [16] isolates
Clostridium spp. = experiment: MIC range, recent clinical and veterinary isolates; conditions: [9] isolates

`CN(C)[C@@H]1C(O)=C(C(N)=O)C(=O)[C@@]2(O)C(O)=C3C(=O)c4c(O)cccc4[C@@](C)(O)[C@H]3C[C@@H]12` [T, Tetracycline] gave an MIC (E. coli J3272 Tet sens) of 1 µg/mL (≈ 2.25 µM), an MIC (E. coli J2175) of 1 µg/mL (≈ 2.25 µM) and an MIC (E. coli UBMS 90-5) of 0.5 µg/mL (≈ 1.13 µM). The MIC (E. coli ATCC 25922) was 0.5 µg/mL (≈ 1.13 µM), the MIC (S. marcescens FPOR 8733) was > 32 µg/mL and the MIC [1] was 8 µg/mL (≈ 18 µM). The MIC (S. aureus NEMC 8769) was 0.06 µg/mL (≈ 0.135 µM), the MIC (S. aureus UBMS 88-4) was 0.12 µg/mL (≈ 0.27 µM) and the MIC (S. aureus UBMS 90-3) was 0.12 µg/mL (≈ 0.27 µM). The MIC (S. aureus SMITH (MP)) was 0.12 µg/mL (≈ 0.27 µM), the MIC (S. aureus ATCC 29213) was < 0.015 µg/mL and the MIC [2] was 0.5 µg/mL (≈ 1.13 µM). It also gave an MIC (Enterococcus 12201) of 32 µg/mL (≈ 72 µM), an MIC [3] of 0.12 to 1 µg/mL (≈ 0.27 to 2.25 µM) and an MIC (Enterococcus faecalis) of 0.12 to 64 µg/mL (≈ 0.27 to 144 µM). The MIC (Enterococcus faecium) was 0.12 to 64 µg/mL (≈ 0.27 to 144 µM), the MIC (Streptococcus pyogenes) was 0.12 to 16 µg/mL (≈ 0.27 to 36 µM) and the MIC (Streptococcus agalactiae) was 0.25 to 64 µg/mL (≈ 0.563 to 144 µM). It also gave an MIC (Streptococcus pneumoniae) of 0.12 to 2 µg/mL (≈ 0.27 to 4.5 µM), an MIC (Klebsiella oxytoca) of 0.5 to 1 µg/mL (≈ 1.13 to 2.25 µM) and an MIC (Citrobacter freundii) of 0.5 to 16 µg/mL (≈ 1.13 to 36 µM). The MIC (Citrobacter diversus) was 0.5 to 4 µg/mL (≈ 1.13 to 9 µM), the MIC (Enterobacter cloacae) was 0.5 to 2 µg/mL (≈ 1.13 to 4.5 µM) and the MIC (Enterobacter aerogenes) was 0.5 to 1 µg/mL (≈ 1.13 to 2.25 µM). For the same compound, the MIC (Proteus mirabilis) was 0.5 to 64 µg/mL (≈ 1.13 to 144 µM), the MIC (Proteus vulgaris) was 0.25 to 64 µg/mL (≈ 0.563 to 144 µM) and the MIC (Pseudomonas aeruginosa) was 2 to 32 µg/mL (≈ 4.5 to 72 µM). For the same compound, the MIC (Xanthamonas maltophilia) was 8 to 16 µg/mL (≈ 18 to 36 µM), the MIC (Moraxella catarrhalis) was 0.06 to 0.5 µg/mL (≈ 0.135 to 1.13 µM) and the MIC (Haemophilus influenzae) was 1 to 32 µg/mL (≈ 2.25 to 72 µM). The MIC [4] was 0.06 to 16 µg/mL (≈ 0.135 to 36 µM), the MIC [5] was 0.12 to 0.25 µg/mL (≈ 0.27 to 0.563 µM) and the MIC [6] was 0.25 to 32 µg/mL (≈ 0.563 to 72 µM). For the same compound, the MIC (Clostridium difficile) was 0.12 to 32 µg/mL (≈ 0.27 to 72 µM), the “MIC Range” value (Clostridium perfringens) was 0.015 to 16 µg/mL and the “MIC Range” value (Clostridium spp.) was 0.015 to 64 µg/mL.
